This note sets out measurements from patent publication US8044186B2, “Heterologous production of capreomycin and generation of new capreomycin derivatives through metabolic engineering” (priority 2007, dated 2011).

In brackets after ≈: the same amount, converted by molar mass.

Assay [1] has as its system E. coli DH5α/pBAD33-cmnU/pSJ101 (cmnU+, tlyA+). Kind of assay: MIC in E. coli expressing cmnU and tlyA. It counts as cell-based, Escherichia coli. An excerpt: (§1) Analysis of cmnU in E. coli. The gene cmnU was PCR amplified from pCMN-P4C8RF using the following primers: CmnU-NdeI (5′-[…]-3′) (SEQ ID NO:37) and CmnU-HindIII (5′-[…]-3′) (SEQ ID NO:38). The amplicon was cloned into pCR-BluntII-TOPO according to manufacturer's instructions (Invitrogen), resulting in pCR-BluntII-TOPO-cmnU. The NdeI/HindIII fragment of pCR-Blunt-TOPO-cmnU containing cmnU was subcloned into the corresponding restriction sites of pET22b (Novagen), resulting in pET22b-cmnU. The XbaI/HindIII fragment of pET22b-cmnU containing the optimized ribosome-binding site and cmnU was subcloned into the corresponding sites of pBAD33 (14) resulting in pBAD33-cmnU. This construct results in the expression of cmnU under the control of the arabinose promoter of pBAD33. pBAD33 and pBAD33-cmnU were transformed into DH5α strains containing either pLJ102 (empty vector) or pSJ101 (tlyA inserted into pLJ102 and expression controlled by IPTG induction) (18). Each of these strains was grown in LB medium containing chloramphenicol (15 μg/ml) and ampicillin (100 μg/ml) for plasmid maintenance, isopropyl-beta-D-thiogalactopyranoside (40 μg/ml) and arabinose (2% w/v) for induced expression of tlyA and cmnU, respectively, and varying concentrations of CMN (12.5-100 μg/ml) or kanamycin (6-96 μg/ml). […]

Assay [2] deals with St. lividans 1326/pSE34 (cmnU−). Kind of assay: MIC in St. lividans 1326 with empty vector. It is filed as cell-based, Streptomyces lividans. As to the method:
(§2) Analysis of cmnU in St. lividans 1326. The XbaI/HindIII fragment of pET22b-cmnU was cloned into the corresponding sites of pSE34 (29) to generate pSE34-cmnU. This vector construct results in the constitutive expression of cmnU when pSE34-cmnU is introduced into St. lividans 1326. pSE34-cmnU and pSE34 were introduced into St. lividans 1326 by transformation, and successful transformants were selected by using an overlay of thiostrepton (8 μg/ml). Transformants were streaked for isolation on ISP2 medium containing thiostrepton. To test for CMN or kanamycin resistance, 10^5 spores of St. lividans 1326 containing either pSE34-cmnU or pSE34 were plated onto ISP2 plates supplemented with CMN (25-1600 μg/ml) or kanamycin (3-1600 μg/ml). The plates were incubated at 30° C. for 2 days, and the minimum inhibitory concentration was defined as the lowest antibiotic concentration at which no growth was observed.

Assay [3] deals with E. coli DH5α/pBAD33/pSJ101 (cmnU−, tlyA+). Kind of assay: MIC in E. coli expressing tlyA. It is filed as cell-based, Escherichia coli.
Description: as §1

For assay [4], the system named is St. lividans 1326/pSE34-cmnU (cmnU+). Kind of assay: MIC in St. lividans 1326 expressing cmnU. It is filed as cell-based, Streptomyces lividans. The procedure: as §2
In assay [5] the test system is E. coli DH5α/pBAD33-cmnU/pLJ102 (cmnU+, tlyA−). Kind of assay: MIC in E. coli expressing cmnU. It counts as cell-based, Escherichia coli.
Description: as §1

In assay [6] the test system is E. coli DH5α/pBAD33/pLJ102 (cmnU−, tlyA−). Kind of assay: MIC in E. coli, cmnU not expressed, tlyA not expressed. It is filed as cell-based, Escherichia coli.
Description: as §1

Where [7] appears, read: Escherichia coli, 16 h, read-out: minimum inhibitory concentration (MIC).
[8] abbreviates: Streptomyces lividans, 48 h, read-out: minimum inhibitory concentration (MIC).

For `NC[C@H]1O[C@H](O[C@H]2[C@H](O)[C@@H](O[C@H]3O[C@H](CO)[C@@H](O)[C@H](N)[C@H]3O)[C@H](N)C[C@@H]2N)[C@H](O)[C@@H](O)[C@@H]1O` [Kanamycin, kanamycin], the MIC in assay [1] (setting [7]) is 24 µg/mL (≈ 49.5 µM); in assay [2] (setting [8]), 6 µg/mL (≈ 12.4 µM); in assay [3] (setting [7]), 12 µg/mL (≈ 24.8 µM); in assay [4] (setting [8]), greater than 1600 µg/mL; in assay [5] (setting [7]), 96 µg/mL (≈ 198 µM); in assay [6] (setting [7]), 12 µg/mL (≈ 24.8 µM).
As for capreomycin [CMN], the “minimum inhibitory concentration (MIC)” value in assay [1] (E. coli DH5α/pBAD33-cmnU/pSJ101 (cmnU+, tlyA+), lowest concentration with OD650 < 0.1 after 16 hrs at 37° C. in LB medium, three separate experiments) is 50 µg/mL; in assay [2] (St. lividans 1326/pSE34 (cmnU−), lowest concentration with no growth on ISP2 plates after 2 days at 30° C., three separate experiments), 200 µg/mL; in assay [3] (E. coli DH5α/pBAD33/pSJ101 (cmnU−, tlyA+), lowest concentration with OD650 < 0.1 after 16 hrs at 37° C. in LB medium, three separate experiments), 25 µg/mL; in assay [4] (St. lividans 1326/pSE34-cmnU (cmnU+), lowest concentration with no growth on ISP2 plates after 2 days at 30° C., three separate experiments), greater than 1600 µg/mL; in assay [5] (E. coli DH5α/pBAD33-cmnU/pLJ102 (cmnU+, tlyA−), lowest concentration with OD650 < 0.1 after 16 hrs at 37° C. in LB medium, three separate experiments), 100 µg/mL; in assay [6] (E. coli DH5α/pBAD33/pLJ102 (cmnU−, tlyA−), lowest concentration with OD650 < 0.1 after 16 hrs at 37° C. in LB medium, three separate experiments), 50 µg/mL.
